Entries after “also recorded” stand apart in the source; their conditions may differ.
How the values were obtained:
[1] = molecular target: T1, 12-LO (Sus scrofa, UniProt P16469); assay: 12-LO catalysed oxidation of the nitro compounds (substrate test); type: biochemical, porcine; conditions: pH 7.4 buffer, 234 nm
T1 construct: purchased Cayman Chemical Company
T1 sequence (P16469 1-663): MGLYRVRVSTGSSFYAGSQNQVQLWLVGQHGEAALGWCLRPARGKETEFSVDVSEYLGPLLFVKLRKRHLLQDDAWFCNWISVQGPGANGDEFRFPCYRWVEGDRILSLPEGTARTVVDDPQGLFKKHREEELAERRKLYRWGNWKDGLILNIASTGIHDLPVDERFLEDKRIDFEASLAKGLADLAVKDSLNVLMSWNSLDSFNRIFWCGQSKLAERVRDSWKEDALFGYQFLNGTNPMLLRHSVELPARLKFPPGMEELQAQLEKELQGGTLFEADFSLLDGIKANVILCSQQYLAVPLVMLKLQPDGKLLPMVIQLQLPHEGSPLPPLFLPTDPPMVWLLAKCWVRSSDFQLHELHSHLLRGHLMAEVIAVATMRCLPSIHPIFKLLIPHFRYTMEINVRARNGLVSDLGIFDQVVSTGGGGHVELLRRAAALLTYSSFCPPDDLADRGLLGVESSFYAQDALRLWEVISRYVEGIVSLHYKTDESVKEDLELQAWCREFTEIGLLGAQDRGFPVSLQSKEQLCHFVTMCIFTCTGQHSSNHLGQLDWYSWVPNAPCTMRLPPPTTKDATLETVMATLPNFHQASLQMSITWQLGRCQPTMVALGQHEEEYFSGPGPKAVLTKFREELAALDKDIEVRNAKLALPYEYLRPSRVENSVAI
Experimental: (§1) Based on this consideration, 5-LO, 12-LO and 15-LO catalysed oxidation of the nitro compounds (4a, 4b, 6a, 6b, 8a and 8b) was investigated. Each of the nitro compounds was treated with 15-LO in pH 9.0 buffer (or 5-LO in pH 6.3 buffer and 12-LO in pH 7.4 buffer), and the formation of 15-hydroperoxy derivatives (or 5-hydroperoxy or 12-hydroperoxy derivatives) over time was monitored by LW spectroscopy at 234 nm.

[2] = molecular target: T2, 15-LO (Glycine max, UniProt P08170); assay: Effect on 15-LO catalysed oxidation of arachidonic acid; type: biochemical, soybean; conditions: preliminary experiment, result in words
T2 construct: purchased Sigma Chemical Company
T2 sequence (P08170 1-839): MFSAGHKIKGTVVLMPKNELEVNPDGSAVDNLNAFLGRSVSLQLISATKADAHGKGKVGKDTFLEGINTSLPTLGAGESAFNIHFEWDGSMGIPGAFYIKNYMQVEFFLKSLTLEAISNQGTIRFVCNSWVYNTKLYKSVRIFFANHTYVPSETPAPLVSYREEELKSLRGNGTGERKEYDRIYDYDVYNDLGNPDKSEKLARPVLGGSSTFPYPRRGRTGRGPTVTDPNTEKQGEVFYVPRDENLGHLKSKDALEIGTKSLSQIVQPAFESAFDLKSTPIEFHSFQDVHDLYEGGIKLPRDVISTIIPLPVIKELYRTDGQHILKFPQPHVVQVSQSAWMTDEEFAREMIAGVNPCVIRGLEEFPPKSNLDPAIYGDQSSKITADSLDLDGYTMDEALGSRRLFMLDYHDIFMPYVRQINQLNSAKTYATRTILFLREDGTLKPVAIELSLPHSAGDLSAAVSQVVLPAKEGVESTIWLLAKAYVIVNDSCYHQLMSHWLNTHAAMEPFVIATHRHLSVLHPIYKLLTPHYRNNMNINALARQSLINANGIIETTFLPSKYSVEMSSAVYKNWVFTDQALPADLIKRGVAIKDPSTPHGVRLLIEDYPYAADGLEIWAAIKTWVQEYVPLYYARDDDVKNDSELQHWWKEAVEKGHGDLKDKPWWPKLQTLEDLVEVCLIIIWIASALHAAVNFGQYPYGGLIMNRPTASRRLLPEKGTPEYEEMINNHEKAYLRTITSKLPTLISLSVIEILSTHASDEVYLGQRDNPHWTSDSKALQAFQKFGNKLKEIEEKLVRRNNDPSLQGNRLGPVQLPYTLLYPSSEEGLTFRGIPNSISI

[3] = molecular target: T2, 15-LO; assay: 15-LO catalysed oxidation of the nitro compounds (substrate test); type: biochemical, soybean; conditions: pH 9.0 buffer, 234 nm
Experimental: as §1

[4] = molecular target: T1, 12-LO; assay: Effect on 12-LO catalysed oxidation of arachidonic acid; type: biochemical, porcine; conditions: preliminary experiment; result in words
Experimental: as §1
A number of Lx compounds were tested for anti 5-LOX and 12-LOX activities in the human breast cancer cell line, MCF-7. […] The ability of 5-LOX and 12-LOX to produce oxidated products of 20:4n-6 with a different absorption wavelength in the presence of nitroso-PUFA was examined and is shown in the progress curves in FIG. 6. […] Within cells, activation of 5-LOX is facilitated by 5-LOX activating protein (FLAP). Thus, in intact cells, Lx7 and Lx9 may be able to activate 5-LOX at lower concentrations than those required in the purified enzyme system shown in FIG. 6. […] By being able to activate 5-LOX and suppress 12-LOX, these compounds have the desired characteristics of anti-breast cancer agents as discussed previously.
(§2) 15-LO was obtained from Sigma Chemical Company, and 12-LO from Cayman Chemical Company. Arachidonic acid 1, linolenyl alcohol 57a, gamma linolenyl alcohol 5b, arachidonyl alcohol 57c and docosahexaenyl alcohol 57d were purchased from Nu-Chek Prep. Inc. Elysian, Minn., USA. Other chemicals were commercially available from Aldrich Chemical Company.

[5] = molecular target: T3, 5-LO (Solanum tuberosum, UniProt P37831); assay: Effect on 5-LO catalysed oxidation of arachidonic acid; type: biochemical; conditions: preliminary experiment; purified enzyme; result in words
T3 sequence (P37831 whole entry): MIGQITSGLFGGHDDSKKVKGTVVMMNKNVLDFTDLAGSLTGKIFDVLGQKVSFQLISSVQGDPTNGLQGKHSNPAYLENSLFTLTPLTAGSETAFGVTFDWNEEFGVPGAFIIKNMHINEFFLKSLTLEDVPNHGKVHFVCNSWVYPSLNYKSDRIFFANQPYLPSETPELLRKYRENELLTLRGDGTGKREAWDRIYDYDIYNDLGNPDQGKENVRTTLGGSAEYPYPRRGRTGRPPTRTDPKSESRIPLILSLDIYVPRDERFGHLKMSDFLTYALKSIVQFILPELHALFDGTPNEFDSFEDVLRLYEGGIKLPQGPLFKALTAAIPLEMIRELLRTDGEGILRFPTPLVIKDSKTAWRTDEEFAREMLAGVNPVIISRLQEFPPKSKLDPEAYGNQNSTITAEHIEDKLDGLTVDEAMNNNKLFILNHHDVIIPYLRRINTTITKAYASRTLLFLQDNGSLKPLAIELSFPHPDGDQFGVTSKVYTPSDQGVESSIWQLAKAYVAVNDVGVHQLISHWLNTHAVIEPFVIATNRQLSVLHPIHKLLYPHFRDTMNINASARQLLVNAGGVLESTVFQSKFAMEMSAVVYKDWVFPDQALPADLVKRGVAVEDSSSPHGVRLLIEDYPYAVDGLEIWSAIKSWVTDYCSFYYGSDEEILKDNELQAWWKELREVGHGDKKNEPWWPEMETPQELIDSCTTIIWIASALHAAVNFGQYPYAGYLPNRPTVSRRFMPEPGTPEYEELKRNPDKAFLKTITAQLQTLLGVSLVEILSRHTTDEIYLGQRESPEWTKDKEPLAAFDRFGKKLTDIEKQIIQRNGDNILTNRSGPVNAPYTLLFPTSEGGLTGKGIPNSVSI
Experimental: as §1, with “nm. […]” for “nm.”

[6] = molecular target: T3, 5-LO; assay: 5-LO catalysed oxidation of the nitro compounds (substrate test); type: biochemical; conditions: pH 6.3 buffer, 234 nm
Experimental: as §1

[7] = system: MCF-7 cells; assay: Killing of MCF-7 breast cancer cells in vitro; type: cell-based, human; conditions: in vitro (FIG. 7); compared with 20:4n-6 toxicity
Text: While interference with 5-LOX or 12-LOX activity individually impacts on growth rates of human breast cancer MCF-7 cells^(55,56), the simultaneous modification of the activities of both enzymes at once may cause death. […] Lx4, a nitroso-compound with the same number of carbon atoms and degree of unsaturation as Lx9 but lacking a COOH group, was ineffective (FIG. 7).

[8] = molecular target: T2, 15-LO; assay: Effect on 15-LO catalysed oxidation of arachidonic acid; type: biochemical, soybean; conditions: varying concentrations of compound
Experimental: as §1
The inhibitor constant (Ki or KI) of compound 8a was also determined.
as §2

[9] = listed as (all-Z)-1-nitrotricosa-8,11,14,17-tetraenoic acid

CCCCC/C=C\C/C=C\C/C=C\C/C=C\CCCC(CCC(=O)O)[N+](=O)[O-] (centres unmarked) [Lx7, (all-Z)-4-Nitrotricosa-8,11,14,17-tetraenoic acid]
Substrate for 12-LO (formation of 12-hydroperoxy derivative) [1]: substrate for 12-LOX
Substrate for 12-LO (formation of 12-hydroperoxy derivative) ([1]; listed as 6b): served as a substrate
Substrate for 12-LO (formation of 12-hydroperoxy derivative) [1, 9]: good substrate
Effect on 15-LO catalysed oxidation of AA [2]: Substrate
Substrate for 15-LO (formation of 15-hydroperoxy derivative) ([3]; listed as 6b): served as a substrate
Substrate for 15-LO (formation of 15-hydroperoxy derivative) [3, 9]: good substrate; also recorded: comparable to that of arachidonic acid
Effect on 12-LO catalysed oxidation of AA [4]: Substrate
Effect on 5-LO catalysed oxidation of AA [5]: can activate 5-LOX; also recorded: Activatory
Substrate for 5-LO (formation of 5-hydroperoxy derivative) [6]: not for 5-LO
Killing of MCF-7 tumour cells [7]: kill these tumour cells

CCCCCCCCCCCCCCCCCC(CCC(=O)O)(CCC(=O)O)[N+](=O)[O-] [Lx8, 3-Heptadecyl-3-nitropentane-1,5-dicarboxylic acid]
Effect on 15-LO catalysed oxidation of AA [2]: Inhibitory
Effect on 15-LO catalysed oxidation of AA ([2]; listed as 3-heptadecyl-3-nitropentane-1,5-dicarboxylic acid): selective inhibitors
Effect on 15-LO catalysed oxidation of AA ([2]; listed as 8a): inhibitory effect
melting point: 102 °C
Effect on 12-LO catalysed oxidation of AA [4]: Activatory
Effect on 5-LO catalysed oxidation of AA [5]: Nil
Inhibition pattern on 15-LO (1/v vs 1/[s]) [8]: mixed inhibition pattern
